# Test results reported in patent US20250025444A1, “TREATMENT OF NEURODEGENERATIVE DISEASES VIA ADMINISTRATION OF BUNTANETAP AND A PHOSPHODIESTERASE INHIBITOR” (ANNOVIS BIO, INC., priority 2022, published 2025).
# Marks after values point to notes of the source that are not given here.
# Columns and labels:
# [1] = system: mouse hippocampal slices perfused with 200 nM oligomeric Aβ; test: Electrophysiological analysis (LTP, CA1 fEPSP) of hippocampal slices perfused with oligomeric Aβ; format: cell-based, C57BI6 mice; settings: for Aβ-induced LTP defect: 200 nM oligomeric Aβ
# Method: Animals: C57BI6 mice of both sexes were used for these experiments. They were obtained by a breeding colony maintained at the animal facility of Columbia University.
# Aβ was prepared as previously described (Stine at al, J Biol Chem. 2003).
# Electrophysiological Analysis was performed on […] hippocampal slices, cut with a tissue chopper and maintained in an interface chamber at 29° C. for 90 min prior to recording. Briefly, CA1 fEPSPs were recorded by placing both the stimulating and the recording electrodes in CA1 stratum radiatum. Basal synaptic transmission was assayed, either by plotting the stimulus voltages against slopes of fEPSP, or by plotting the peak amplitude of the fiber volley against the slope of the fEPSP. A 10 min baseline was recorded every min at an intensity that evokes a response, ˜35% of the maximum evoked response in the presence of vehicle. Then slices were either perfused with 200 nM oligomeric Aβ or vehicle with or without compound for 20 min prior to applying a theta burst stimulation (4 pulses at 100 Hz, with the bursts repeated at 5 Hz and each tetanus including 3 ten-burst trains separated by 15 sec). Data was subjected to statistical analyses to determine the effects of combination on inhibiting synaptic dysfunction.
# Slices were coded to blind investigators with respect to treatment. Results were expressed with Standard Error of the Mean (SEM). Level of significance was set for p<0.05. Results were analyzed by ANOVA analysis with post-hoc correction.
# αSYN [2] = settings: transgenic Parkinson's animals, brain and gut; cited from earlier work
# rat acute glaucoma model = settings: cited from earlier work
# tau [3] = settings: unpublished observation, Peter Davies Laboratory; cited from earlier work
# APP [4] = settings: literature report; cited from earlier work
# APP and its fragments [5] = test: APP in vivo: APP/PS1 transgenic AD mice, hippocampus
# Text: (§1) Buntanetap's effect on neurotoxic proteins.
# FIG. 2A, APP in vivo. […] GAPDH and Synaptophysin were loading controls. FIG. 2 also includes a collection of graphs showing relative density of APP plotted against control and time after buntanetap treatment; relative density of CTFβ plotted against control and time after buntanetap treatment; relative density of CTFα plotted against control and time after buntanetap treatment; Aβ42 levels in brain tissue plotted against control and time after buntanetap treatment; and Aβ40 levels in brain tissue plotted against control and time after buntanetap treatment. Finally, FIG. 2 also includes a Western blot showing levels of APP, NSB, CTFβ, and CTFα after buntanetap treatment over time (minutes).
# [6] = system: early AD patients and early PD patients; settings: cited from earlier work
# [7] = cited from earlier work
# [8] = system: APP, Tau, and αSYN in the cerebrospinal fluid (CSF); test: Study of MCI subjects: CSF and plasma markers before and after 10 days of buntanetap (proof of mechanism); settings: 4×60 mg/day
# tau [9] = settings: Human tau mice, unpublished observation; cited from earlier work
# αSYN [10] = settings: neuroblastoma cells; cited from earlier work
# [11] = system: APP/PS1 transgenic (tg) mouse model of AD; settings: cited from earlier work
# clinical = settings: human, brain (relative to plasma)
# [12] = system: human SNCAA53T tg mouse model of PD; settings: cited from earlier work
# APP [13] = test: APP in vitro, Western blot in SH-SY-5Y human neuroblastoma cells; format: cell-based; settings: SH-SY-5Y cells, 0, 0.1, 1, 5 and 10 μM
# Text: as §1
# [14] = system: Ts65dn mouse model of Down syndrome (DS); settings: cited from earlier work
# [15] = system: APP, Tau, and αSYN in the cerebrospinal fluid (CSF); settings: cited from earlier work
# [16] = system: traumatic brain injury rats; settings: cited from earlier work
# [17] = system: patients with mild to moderate AD; test: Randomized, double-blind, placebo-controlled Phase II/III study in mild to moderate AD (NCT05686044); format: in vivo, human
# Method: A randomized, double-blind, placebo-controlled Phase II/III study trial investigating the efficacy, safety, and tolerability of buntanetap in patients with mild to moderate AD was conducted. This was a dose-ranging study where patients received either one of three doses of buntanetap (7.5 mg, 15 mg, or 30 mg) or placebo on top of their standard of care for 12 weeks. In this study, over 700 patients were screened, a total of 353 patients were enrolled, and 325 patients completed the study across 54 sites in the US. The study included mild to moderate AD patients whose Mini Mental State Examination (MMSE) scores at baseline ranged from 14 to 24. (www.clinicaltrials.gov (NCT05686044)).
# Beyond safety, the trial assessed the changes in two co-primary endpoints: Alzheimer's Disease Assessment Scale-Cognitive Subscale 11 (ADAS-Cog 11) and Alzheimer's Disease Cooperative Study Clinician's Global Impression of Change (ADCS-CGIC), which assess cognition and activities of daily living. The study monitored for safety and collected plasma to measure several biomarkers to assess the disease state, potential disease progression, and treatment effects.
# [18] = system: early AD patients and early PD patients; test: Phase 2a double-blind, placebo-controlled study in early AD and early PD patients; format: in vivo, human
# [19] = system: fully differentiated Down syndrome nerve cells; settings: cited from earlier work
# APP and its fragments [20] = settings: APP/PS1 transgenic mice, literature report; cited from earlier work
# [21] = 3 phase 3 clinical studies, failed; cited from earlier work
# [22] = in vivo; cited from earlier work
smiles,measurement,setting,value
"COc1ccc(CNc2c(CO)cnc3c(C4CC4)cc(C#N)cc23)cc1Cl [7a, 4-[(3-Chloro-4-methoxybenzyl)amino]-8-cyclopropyl-3-(hydroxymethyl) quinoline-6-carbonitrile]",Aβ-induced LTP defect,[1]; 7a 1 nM alone,did not ameliorate
same,% Improvement (based on change in Residual Potential; veh minus wt ab = 100%),[1]; ab + 7a 1 nM,14.23%
same,Residual Potential (mean),[1]; ab + 7a 1 nM,147.78
same,% Improvement (based on change in Residual Potential; veh minus wt ab = 100%),[1]; ab + 7a 10 nM,59.63%
same,Residual Potential (mean),[1]; ab + 7a 10 nM,174.99
same,% Improvement (based on change in Residual Potential; veh minus wt ab = 100%),[1]; ab + 7a 50 nM,106.8%
same,Residual Potential (mean),[1]; ab + 7a 50 nM,207.77
"CN1CC[C@]2(C)c3cc(OC(=O)Nc4ccccc4)ccc3N(C)C12 (single isomer, unassigned) [buntanetap]",αSYN in vivo,αSYN [2],lowers
same,retina,rat acute glaucoma model; acute glaucoma,Preserved
same,nerve cell protection,rat acute glaucoma model; rat acute glaucoma model,protected
same,tau in vitro,tau [3],lowers
same,levels of APP in vitro in neuroblastoma cells,APP [4],lowers
same,duration of reduction of APP and all related peptides in hippocampus after the last dose,APP and its fragments [5]; APP/PS1 mice,at least 9 hours
same,APP and its fragments in hippocampus,APP and its fragments [5]; APP/PS1 transgenic AD mice,reduced
same,levels of neurotoxic proteins and inflammatory factors (biomarker data),[6]; AD and PD cohorts,trend in lowering
same,ADAS-Cog11 and WAIS coding,[6]; AD patients,statistically significant improvements
same,MDS-UPDRS and WAIS coding,[6]; PD patients,statistically significant improvements
same,safety and tolerability,"[6]; doses up to 80 mg, AD and PD patients",well tolerated
same,Cmax and AUC,"[6]; plasma, up to 80 mg QD",increased with dose without evidence for a plateau
same,tolerability,[7]; doses up to 4×60 mg daily×10 days,well tolerated
same,terminal half-life,"[7]; plasma, all doses, cleared biphasically",4.3 to 4.7 h
same,"levels of APP, Tau, and αSYN in the cerebrospinal fluid (CSF)",[8],normalized
same,tau in vivo,tau [9],lowers
same,αSYN in vitro,αSYN [10],lowers
same,memory and learning,[11]; APP/PS1 tg mouse model of AD,Restored
same,impaired synaptic transmission,[11]; hippocampus of APP/PS1 tg mice,Normalized
same,% Improvement (based on change in Residual Potential; veh minus wt ab = 100%),[1]; ab + buntanetap 1 μM,26.7%
same,Residual Potential (mean),[1]; ab + buntanetap 1 μM,152.11
same,% Improvement (based on change in Residual Potential; veh minus wt ab = 100%),[1]; ab + buntanetap 10 μM,110.7%
same,Residual Potential (mean),[1]; ab + buntanetap 10 μM,210.49
same,Aβ-induced LTP defect,[1]; buntanetap 1 μM alone,did not ameliorate
same,Kp,clinical,~8
same,colonic motility,[12],Restored
same,"APP level (Western blot, in relation to Actin standard)",APP [13],lowers APP in vitro in a dose-dependent manner
same,memory and learning,[14],Restored
same,duration of effect in lowering neurotoxic proteins and inflammation after the last dose,"[15]; MCI subjects, CSF, 12 h sampling period",≥ 12 h
same,CSF Aβ42,[15]; MCI subjects,trend to lower
same,"CSF levels of sAPPα, sAPPβ, t-tau, p-tau, and specific inflammatory markers",[15]; MCI subjects,significantly lowered
same,half-life in CSF,[15]; MCI subjects,> 12 h
same,inflammation,[15]; human CSF of MCI subjects,lowered
same,inflammation,[16]; rat brain after TBI,lowered
same,impaired synaptic transmission,[16]; rat striatum after TBI,Normalized
same,nerve cell protection,[16]; rat substantia nigra after TBI,protected
same,memory and learning,[16]; traumatic brain injury rats,Preserved
same,Non-Responders (Number),[17]; 7.5 mg,5
same,Non-Responders (Percentage),[17]; 7.5 mg,(26.32%)
same,Responders (Number),[17]; 7.5 mg,14
same,Responders (Percentage),[17]; 7.5 mg,(73.68%)**
same,Non-Responders (Number),[17]; 15 mg,7
same,Non-Responders (Percentage),[17]; 15 mg,(28.00%)
same,Responders (Number),[17]; 15 mg,18
same,Responders (Percentage),[17]; 15 mg,(72.00%)**
same,Non-Responders (Number),[17]; 30 mg,3
same,Non-Responders (Percentage),[17]; 30 mg,(12.50%)
same,Responders (Number),[17]; 30 mg,21
same,Responders (Percentage),[17]; 30 mg,(87.50%)***
same,difference in the proportion of participants who improved relative to placebo,[17]; 30 mg group,three-fold
same,axonal and synaptic function,[18]; AD and PD patients,improved
same,blood brain barrier passage,[18]; AD and PD patients,crossed the blood brain barrier
same,inflammatory markers,[18]; AD and PD patients,reduced
same,neurotoxic protein biomarkers,[18]; AD and PD patients,reduced
same,cognition as measured by ADAS-Cog11 and WAIS coding speed,"[18]; AD patients, 80 mg QD, significant versus baseline",improved
same,"motor function as measured by MDS-UPDRS (Part II, III, IV and total)","[18]; PD patients, all doses 5-80 mg QD, maximum improvement for 10 & 20 mg",improved
same,WAIS speed and accuracy,"[18]; PD patients, significant versus placebo at 5 mg, 20 mg and 80 mg",improved
same,anterograde and retrograde vesicle transport,[19],Normalized
same,levels of APP and all its fragments,APP and its fragments [20],lowers
"CN1CC[C@@]2(C)c3cc(OC(=O)Nc4ccccc4)ccc3N(C)[C@@H]12 [phenserine, (−)-N-phenylcarbamoyl eseroline]",side effects,[21],high cholinomimetic side effects
COc1ccc(CN=c2[nH]c(N3CCC[C@H]3CO)ncc2C(=O)NCc2ncccn2)cc1Cl [avanafil],half-life,[22],about 5 hours
